# According to patent US20110111972A1, “SELECTIVITY PROFILING OF PI3K INTERACTING MOLECULES AGAINST MULTIPLE TARGETS” (CELLZOME AG, priority 2008, published 2011):
# How the values were obtained:
# Type in all cases: binding
# PI3K gamma = target: T1, PI3K gamma (Homo sapiens, UniProt P48736); assay: Drug pulldown with immobilized phenylthiazole ligand 1, Western blot detection; details: MOLT-4 cell lysate
# T1 construct: PI3K gamma protein was captured by immobilized phenylthiazole ligand 1 from MOLT-4 cell lysate; endogenous in cells; host or cells: MOLT-4 (ATCC CRL-1582) cell lysate
# Procedure: (§1) As biological material a cell lysate prepared from MOLT-4 cells was used. The drug pulldown experiment was performed as described in Example 2 with lysate samples containing 50 mg of protein. Captured proteins were eluted with DMSO containing buffer (lane 1), 100 μM of free phenylthiazole ligand 1 or SDS sample buffer (lane 3). The eluted samples were separated on SDS-polyacrylamide gels and transferred to membranes. The blots were first incubated with specific antibodies directed against PI3K gamma (FIG. 2A) and PI3K delta (FIG. 2B). Secondary detection antibodies labeled with fluorescent dyes for detection were used with the Odyssey infrared imaging system. Lane 1: DMSO elution control; lane 2: elution with 100 μM free phenylthiazole ligand 1; lane 3: SDS elution. […]
# (§2) For Western blot analysis bound proteins were eluted from the affinity matrix and subsequently separated by SDS-Polyacrylamide gel elecrophoresis. PI3K gamma and PI3K delta were detected with specific antibodies (FIG. 2).
# (§3) MOLT-4 cells were homogenized in a Potter S homogenizer in lysis buffer: 50 mM Tris-HCl, 0.8% NP40, 5% glycerol, 150 mM NaCl, 1.5 mM MgCl2, 25 mM NaF, 1 mM sodium vanadate, 1 mM DTT, pH 7.5. […] The supernatant was transferred again to a fresh 50 ml falcon tube, the protein concentration was determined by a Bradford assay (BioRad) and samples containing 50 mg of protein per aliquot were prepared. […]
# PI3K delta = target: T2, PI3K delta (Homo sapiens, UniProt O00329); assay: as above; details: MOLT-4 cell lysate
# T2 construct: endogenous in cells; host or cells: MOLT-4 (ATCC CRL-1582) cell lysate
# Procedure: as §1, §2, §3
# DNA-PK = target: T3, DNA-PK (Homo sapiens, UniProt P78527); assay: Drug pulldown with immobilized phenylthiazole ligand 1, mass spectrometry analysis; details: 1:1 mixture of Jurkat and Ramos cell lysate
# T3 construct: with a 1:1 mixture of Jurkat and Ramos cell lysate sample containing 50 mg of protein; endogenous in cells; host or cells: 1:1 mixture of Jurkat and Ramos cell lysates
# Excerpt: (§4) A protein gel after staining with Coomassie blue is shown. The indicated gel areas were cut out as gel slices and proteins were subjected to analysis by mass spectrometry. […] Proteins bound to immobilized phenylthiazole ligand 1 were eluted with SDS sample buffer and separated by SDS-polyacrylamide gel electrophoresis (SDS-PAGE). The following proteins were identified in this experiment: DNA-PK, ATM, and mTOR. […] Beads were collected, transfered to Mobicol-columns (MoBiTech 10055) and washed with 10 ml lysis buffer containing 0.5% NP40 detergent, followed by 5 ml lysis buffer with 0.25% detergent. […] Proteins were then separated by SDS-Polyacrylamide electrophoresis (SDS-PAGE). Gel-separated proteins were reduced, alkylated and digested in gel essentially following the procedure described by Shevchenko et al., 1996, Anal. Chem. 68:850-858. Briefly, gel-separated proteins were excised from the gel using a clean scalpel, reduced using 10 mM DTT (in 5 mM ammonium bicarbonate, 54° C., 45 min) and subsequently alkylated with 55 mM iodoacetamid (in 5 mM ammonium bicarbonate) at room temperature in the dark (30 minutes). Reduced and alkylated proteins were digested in gel with porcine trypsin (Promega) at a protease concentration of 12.5 ng/μl in 5 mM ammonium bicarbonate. Digestion was allowed to proceed for 4 hours at 37° C. and the reaction was subsequently stopped using 5 μl 5% formic acid. Gel plugs were extracted twice with 20 μl 1% TFA and pooled with acidified digest supernatants. […] Peptide samples were injected into a nano LC system (CapLC, Waters or Ultimate, Dionex) which was directly coupled either to a quadrupole TOF (QTOF2, QTOF Ultima, QTOF Micro, Micromass) or ion trap (LCQ Deca XP) mass spectrometer. […] Proteins were identified by correlating the measured peptide mass and fragmentation data with the same data computed from the entries in the database using the software tool Mascot (Matrix Science; Perkins et al., 1999. Probability-based protein identification by searching sequence databases using mass spectrometry data. Electrophoresis 20, 3551-3567). […]
# ATM = target: T4, ATM (Homo sapiens, UniProt Q13315); assay: as above; details: 1:1 mixture of Jurkat and Ramos cell lysate
# T4 construct: with a 1:1 mixture of Jurkat and Ramos cell lysate sample containing 50 mg of protein; endogenous in cells; host or cells: 1:1 mixture of Jurkat and Ramos cell lysates
# Excerpt: as §4
# mTOR = target: T5, mTOR (Homo sapiens, UniProt P42345); assay: as above; details: 1:1 mixture of Jurkat and Ramos cell lysate
# T5 construct: with a 1:1 mixture of Jurkat and Ramos cell lysate sample containing 50 mg of protein; endogenous in cells; host or cells: 1:1 mixture of Jurkat and Ramos cell lysates
# Excerpt: as §4
# T4 sequence (Q13315 whole entry): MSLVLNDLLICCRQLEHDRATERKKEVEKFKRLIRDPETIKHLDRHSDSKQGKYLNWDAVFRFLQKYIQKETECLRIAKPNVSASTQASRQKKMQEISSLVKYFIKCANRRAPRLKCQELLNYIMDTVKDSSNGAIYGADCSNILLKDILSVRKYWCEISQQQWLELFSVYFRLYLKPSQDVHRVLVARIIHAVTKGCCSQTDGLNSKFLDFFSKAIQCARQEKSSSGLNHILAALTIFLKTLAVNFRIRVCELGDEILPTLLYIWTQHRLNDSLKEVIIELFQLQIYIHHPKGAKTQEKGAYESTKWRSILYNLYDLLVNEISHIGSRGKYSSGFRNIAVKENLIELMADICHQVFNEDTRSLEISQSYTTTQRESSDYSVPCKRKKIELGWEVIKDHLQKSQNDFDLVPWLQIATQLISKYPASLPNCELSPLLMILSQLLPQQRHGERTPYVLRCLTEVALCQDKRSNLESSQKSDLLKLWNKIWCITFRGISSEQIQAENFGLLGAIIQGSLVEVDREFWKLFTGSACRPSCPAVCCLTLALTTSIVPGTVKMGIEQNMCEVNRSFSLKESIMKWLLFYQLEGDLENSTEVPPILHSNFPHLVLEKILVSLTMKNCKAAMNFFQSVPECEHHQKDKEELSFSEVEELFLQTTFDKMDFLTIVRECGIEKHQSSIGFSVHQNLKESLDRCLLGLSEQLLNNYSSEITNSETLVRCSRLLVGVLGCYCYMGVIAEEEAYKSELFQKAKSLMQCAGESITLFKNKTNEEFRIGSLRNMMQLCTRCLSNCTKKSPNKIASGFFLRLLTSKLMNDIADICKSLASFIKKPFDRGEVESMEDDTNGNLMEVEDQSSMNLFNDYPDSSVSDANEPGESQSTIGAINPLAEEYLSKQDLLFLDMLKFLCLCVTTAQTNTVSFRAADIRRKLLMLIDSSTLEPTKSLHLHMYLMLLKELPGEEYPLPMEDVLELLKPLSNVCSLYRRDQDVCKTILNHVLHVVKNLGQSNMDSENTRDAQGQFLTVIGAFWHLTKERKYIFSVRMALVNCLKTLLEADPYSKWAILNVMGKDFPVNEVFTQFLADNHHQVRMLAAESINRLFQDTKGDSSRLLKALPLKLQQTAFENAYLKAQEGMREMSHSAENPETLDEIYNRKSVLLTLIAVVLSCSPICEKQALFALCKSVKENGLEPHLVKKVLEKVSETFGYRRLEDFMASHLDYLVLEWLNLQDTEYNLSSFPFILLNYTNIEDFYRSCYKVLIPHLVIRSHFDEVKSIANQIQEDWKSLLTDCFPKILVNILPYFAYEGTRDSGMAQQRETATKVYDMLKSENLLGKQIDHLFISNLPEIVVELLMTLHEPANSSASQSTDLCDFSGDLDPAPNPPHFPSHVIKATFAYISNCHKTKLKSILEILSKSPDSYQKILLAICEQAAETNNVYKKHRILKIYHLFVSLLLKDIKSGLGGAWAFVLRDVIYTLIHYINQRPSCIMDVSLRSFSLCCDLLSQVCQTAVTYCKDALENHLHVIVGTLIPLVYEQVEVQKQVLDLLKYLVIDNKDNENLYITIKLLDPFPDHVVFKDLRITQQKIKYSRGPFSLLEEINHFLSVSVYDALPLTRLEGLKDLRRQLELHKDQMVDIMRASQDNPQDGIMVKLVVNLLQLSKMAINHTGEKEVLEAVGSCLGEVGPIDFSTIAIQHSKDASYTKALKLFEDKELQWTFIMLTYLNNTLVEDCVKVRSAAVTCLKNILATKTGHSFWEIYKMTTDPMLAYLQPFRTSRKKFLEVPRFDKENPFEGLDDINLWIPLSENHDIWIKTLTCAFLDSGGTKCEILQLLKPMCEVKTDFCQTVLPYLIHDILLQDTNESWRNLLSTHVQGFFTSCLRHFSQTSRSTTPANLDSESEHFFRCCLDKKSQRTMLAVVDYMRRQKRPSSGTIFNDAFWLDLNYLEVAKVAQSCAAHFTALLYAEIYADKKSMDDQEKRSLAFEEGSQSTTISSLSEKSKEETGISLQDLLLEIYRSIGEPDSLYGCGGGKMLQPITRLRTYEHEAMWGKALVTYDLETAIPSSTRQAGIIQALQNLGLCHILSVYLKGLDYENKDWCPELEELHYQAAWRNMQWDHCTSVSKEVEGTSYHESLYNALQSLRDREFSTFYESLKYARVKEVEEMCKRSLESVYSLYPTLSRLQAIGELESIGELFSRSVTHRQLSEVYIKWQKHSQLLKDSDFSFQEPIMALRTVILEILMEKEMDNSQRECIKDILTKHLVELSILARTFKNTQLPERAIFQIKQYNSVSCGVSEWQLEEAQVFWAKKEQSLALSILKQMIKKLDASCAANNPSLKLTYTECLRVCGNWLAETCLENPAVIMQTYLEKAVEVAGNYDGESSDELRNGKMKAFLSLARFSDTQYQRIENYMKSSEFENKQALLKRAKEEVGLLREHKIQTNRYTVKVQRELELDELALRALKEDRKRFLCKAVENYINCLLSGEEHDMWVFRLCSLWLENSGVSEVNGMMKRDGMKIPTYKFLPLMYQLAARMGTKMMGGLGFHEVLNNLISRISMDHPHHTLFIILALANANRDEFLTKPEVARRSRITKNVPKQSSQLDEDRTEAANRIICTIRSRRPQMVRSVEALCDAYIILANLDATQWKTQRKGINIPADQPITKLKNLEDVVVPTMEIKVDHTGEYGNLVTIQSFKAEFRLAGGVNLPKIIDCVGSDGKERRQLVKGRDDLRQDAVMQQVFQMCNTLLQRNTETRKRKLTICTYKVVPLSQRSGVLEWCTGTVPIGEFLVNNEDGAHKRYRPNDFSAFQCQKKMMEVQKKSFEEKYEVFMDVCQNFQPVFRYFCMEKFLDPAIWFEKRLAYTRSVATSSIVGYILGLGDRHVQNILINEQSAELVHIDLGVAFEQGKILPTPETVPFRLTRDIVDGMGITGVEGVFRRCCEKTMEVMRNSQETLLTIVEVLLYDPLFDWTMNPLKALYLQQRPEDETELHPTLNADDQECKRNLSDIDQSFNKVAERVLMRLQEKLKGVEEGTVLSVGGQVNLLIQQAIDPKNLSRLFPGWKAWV
# T1 sequence (P48736 whole entry): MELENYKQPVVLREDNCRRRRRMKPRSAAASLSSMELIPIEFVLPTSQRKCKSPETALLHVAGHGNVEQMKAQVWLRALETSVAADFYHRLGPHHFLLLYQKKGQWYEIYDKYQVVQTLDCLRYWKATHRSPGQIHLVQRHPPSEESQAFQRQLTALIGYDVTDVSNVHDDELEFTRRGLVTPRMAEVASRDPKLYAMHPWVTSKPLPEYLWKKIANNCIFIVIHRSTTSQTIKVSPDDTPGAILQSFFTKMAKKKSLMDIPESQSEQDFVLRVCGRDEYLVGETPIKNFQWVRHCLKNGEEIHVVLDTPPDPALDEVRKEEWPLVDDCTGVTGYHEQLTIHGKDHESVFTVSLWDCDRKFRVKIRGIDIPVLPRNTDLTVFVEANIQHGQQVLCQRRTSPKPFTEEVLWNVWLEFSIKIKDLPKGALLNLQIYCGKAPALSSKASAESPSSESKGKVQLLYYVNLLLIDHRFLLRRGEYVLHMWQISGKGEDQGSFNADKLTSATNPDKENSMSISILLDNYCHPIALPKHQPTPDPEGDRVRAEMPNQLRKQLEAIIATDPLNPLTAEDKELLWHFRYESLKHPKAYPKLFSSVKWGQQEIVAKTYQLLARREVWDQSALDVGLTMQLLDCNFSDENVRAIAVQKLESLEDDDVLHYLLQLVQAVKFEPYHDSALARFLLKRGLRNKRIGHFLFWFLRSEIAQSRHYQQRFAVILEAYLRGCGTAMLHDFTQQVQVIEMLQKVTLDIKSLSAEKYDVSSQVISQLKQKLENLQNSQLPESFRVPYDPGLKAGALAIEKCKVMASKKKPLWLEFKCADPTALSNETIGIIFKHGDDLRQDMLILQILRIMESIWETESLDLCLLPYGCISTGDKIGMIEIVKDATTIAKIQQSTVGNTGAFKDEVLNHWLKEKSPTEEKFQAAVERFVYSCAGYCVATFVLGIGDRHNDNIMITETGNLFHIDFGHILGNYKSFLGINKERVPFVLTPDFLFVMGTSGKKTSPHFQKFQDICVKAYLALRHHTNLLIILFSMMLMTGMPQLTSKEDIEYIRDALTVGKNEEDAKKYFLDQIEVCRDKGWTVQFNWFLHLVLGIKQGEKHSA
compound,measurement,setting,value
"Cc1nc(NC(=O)CCOCCOCCOCCOCCN)sc1-c1ccc(Cl)c(S(C)(=O)=O)c1.Cl [phenylthiazole ligand 1, 3-(2-{2-[2-(2-amino-ethoxy)-ethoxy]-ethoxy}-ethoxy)-N-[5-(4-chloro-3-methanesulfonyl-phenyl)-4-methyl-thiazol-2yl]-propionamide hydrochloride]",capture (pulldown) of PI3K gamma from cell lysate,PI3K gamma,captures (pulls down)
same,capture (pulldown) of PI3K delta from cell lysate,PI3K delta,captures (pulls down)
same,"DNA-PK bound to immobilized ligand, identified by mass spectrometry",DNA-PK,identified
same,"ATM bound to immobilized ligand, identified by mass spectrometry",ATM,identified
same,"mTOR bound to immobilized ligand, identified by mass spectrometry",mTOR,identified
